Assay results reported in patent US20260026505A1, “HERBICIDAL COMPOSITIONS” (SYNGENTA CROP PROTECTION AG, priority 2022, published 2026).
Several values for one entry are separate records, joined by “and”; a condition that tells them apart may be missing. Equal entries are not always repeated.

Tests used:
Type in all cases: in vivo
Conditions in all cases: after 13 days
[1] = test system: Abutilon theophrasti (ABUTH); assay: Glasshouse herbicide test, sprayed 1 day after sowing, visual percentage phytotoxicity, Colby synergy
Procedure: (§1) Seeds of Amaranthus retroflexus (AMARE), Echinochloa crus-galli (ECHCG), Digitaria sanguinalis (DIGSA), Lolium perenne (LOLPE), Alopecurus myosuroides (ALOMY), Chenopodium album (CHEAL), Setaria faberi(SETFA), Abutilon theophrasti(ABUTH), Setaria viridis (SETVI) and Ipomoea hederacea (IPOHE) were sown in standard sterilised soil in pots. After cultivation for 1 day under controlled conditions in a glasshouse (at 24/16° C., day/night; 14 hours light; 65% humidity), the plants were sprayed at 500 l/Ha with an aqueous spray solution derived from the formulation of the technical active ingredients in a small amount of acetone and a solvent and emulsifier mixture referred to as IF50 (11.12% Emulsogen EL360 TM+44.44% N-methylpyrrolidone+44.44% Dowanol DPM glycol ether), to create a 50 g/l solution which was then diluted using 0.2% Genapol X080 (CAS Number: 9043-30-5) as diluent to give the desired final dose of test compound. Where active ingredients were applied as mixtures, aqueous spray solutions were prepared as above, containing both active ingredients. The test plants were then grown under controlled conditions in a glasshouse (at 24/16° C., day/night; 14 hours light; 65% humidity) and watered twice daily. After 13 days, the test was evaluated visually for percentage phytotoxicity to the plants (where 100=total damage to plant; 0=no damage to plant) when compared to control untreated plants. Two to four replicates were applied for each treatment in a randomised block test design.
(§2) 22., E=X+Y−(X*Y/100), where • X=average percent phytotoxicity of herbicide A when applied at a certain rate • Y=average percent phytotoxicity using herbicide B when applied at a certain rate • E=the expected effect of the mixture of herbicides A and B as calculated from the Colby formula.

[2] = test system: Ipomoea hederacea (IPOHE); assay: as above
Procedure: as §1, §2

Setaria viridis (SETVI) = assay: as above
Procedure: as §1, §2

[3] = test system: Chenopodium album (CHEAL); assay: as above
Procedure: as §1, §2

[4] = test system: Digitaria sanguinalis (DIGSA); assay: as above
Procedure: as §1, §2

Lolium perenne (LOLPE) = assay: as above
Procedure: as §1, §2

[5] = test system: Echinochloa crus-galli (ECHCG); assay: as above
Procedure: as §1, §2

[6] = test system: Alopecurus myosuroides (ALOMY); assay: as above
Procedure: as §1, §2

[7] = test system: Amaranthus retroflexus (AMARE); assay: as above
Procedure: as §1, §2

Setaria faberi (SETFA) = assay: as above
Procedure: as §1, §2

[8] = Glasshouse herbicide test, first A + B-20 table, weed species not given
Procedure: as §1, §2

Structure (SMILES): CC1(C)CON(Cc2ccc(Cl)cc2Br)C1=O [A]
- Observed (percentage phytotoxicity) ([1]; 7.81 g/ha): 6%
- Observed (percentage phytotoxicity) ([1]; 31.25 g/ha): 5% and 11%
- Observed (percentage phytotoxicity) ([1]; 125 g/ha): 31%
- Observed (percentage phytotoxicity) ([2]; 7.81 g/ha): 1% and 0%
- Observed (percentage phytotoxicity) ([2]; 15.63 g/ha): 0% and 5%
- Observed (percentage phytotoxicity) ([2]; 31.25 g/ha): 1%
- Observed (percentage phytotoxicity) ([2]; 62.5 g/ha): 1%
- Observed (percentage phytotoxicity) (Setaria viridis (SETVI); 7.81 g/ha): 10%
- Observed (percentage phytotoxicity) (Setaria viridis (SETVI); 15.63 g/ha): 26%
- Observed (percentage phytotoxicity) ([3]; 15.63 g/ha): 21%
- Observed (percentage phytotoxicity) ([4]; 3.91 g/ha): 4%
- Observed (percentage phytotoxicity) ([4]; 7.81 g/ha): 3%
- Observed (percentage phytotoxicity) ([4]; 15.63 g/ha): 5%
- Observed (percentage phytotoxicity) ([4]; 31.25 g/ha): 11%
- Observed (percentage phytotoxicity) ([4]; 62.5 g/ha): 68%
- Observed (percentage phytotoxicity) (Lolium perenne (LOLPE); 3.91 g/ha): 8%
- Observed (percentage phytotoxicity) (Lolium perenne (LOLPE); 7.81 g/ha): 13%
- Observed (percentage phytotoxicity) (Lolium perenne (LOLPE); 15.63 g/ha): 13%
- Observed (percentage phytotoxicity) (Lolium perenne (LOLPE); 31.25 g/ha): 35% and 18%
- Observed (percentage phytotoxicity) (Lolium perenne (LOLPE); 62.5 g/ha): 43% and 30%
- Observed (percentage phytotoxicity) ([5]; 7.81 g/ha): 25% and 34%
- Observed (percentage phytotoxicity) ([5]; 15.63 g/ha): 48%
- Observed (percentage phytotoxicity) ([6]; 7.81 g/ha): 5%
- Observed (percentage phytotoxicity) ([6]; 15.63 g/ha): 10%
- Observed (percentage phytotoxicity) ([6]; 31.25 g/ha): 21% and 16%
- Observed (percentage phytotoxicity) ([6]; 62.5 g/ha): 40%
- Observed (percentage phytotoxicity) ([6]; 125 g/ha): 68%
- Observed (percentage phytotoxicity) ([7]; 3.91 g/ha): 11%
- Observed (percentage phytotoxicity) ([7]; 31.25 g/ha): 21%
- Observed (percentage phytotoxicity) ([7]; 62.5 g/ha): 31% and 50%
- Observed (percentage phytotoxicity) ([7]; 125 g/ha): 74%
- Observed (percentage phytotoxicity) (Setaria faberi (SETFA); 7.81 g/ha): 13%
- Observed (percentage phytotoxicity) (Setaria faberi (SETFA); 15.63 g/ha): 11%
- Observed (percentage phytotoxicity) (Setaria faberi (SETFA); 31.25 g/ha): 41%
- Observed (percentage phytotoxicity) ([8]; 15.63 g/ha): 10%
- Observed (percentage phytotoxicity) ([8]; 31.25 g/ha): 21%

Structure (SMILES): CS(=O)(=O)c1ccc(C(=O)C2C(=O)CCCC2=O)c([N+](=O)[O-])c1 [Compound B-4]
- Observed (percentage phytotoxicity) ([1]; 3.91 g/ha): 78%
- Observed (percentage phytotoxicity) ([2]; 3.91 g/ha): 10%
- Observed (percentage phytotoxicity) ([4]; 3.91 g/ha): 70%
- Observed (percentage phytotoxicity) ([5]; 3.91 g/ha): 5%
- Observed (percentage phytotoxicity) ([6]; 3.91 g/ha): 0%
- Observed (percentage phytotoxicity) ([6]; 7.81 g/ha): 3%
- Observed (percentage phytotoxicity) ([7]; 3.91 g/ha): 53%
- Observed (percentage phytotoxicity) ([7]; 7.81 g/ha): 85%
- Observed (percentage phytotoxicity) ([7]; 15.63 g/ha): 85%
- Observed (percentage phytotoxicity) ([7]; 31.25 g/ha): 85%
- Observed (percentage phytotoxicity) (Setaria faberi (SETFA); 3.91 g/ha): 5%
- Observed (percentage phytotoxicity) (Setaria faberi (SETFA); 7.81 g/ha): 3%
- Observed (percentage phytotoxicity) (Setaria faberi (SETFA); 15.63 g/ha): 8%

Structure (SMILES): CCCN(CCC)C(=O)SCc1ccccc1 [Compound B-7]
- Observed (percentage phytotoxicity) ([1]; 62.5 g/ha): 8%
- Observed (percentage phytotoxicity) ([1]; 125 g/ha): 15%
- Observed (percentage phytotoxicity) ([2]; 31.25 g/ha): 10%
- Observed (percentage phytotoxicity) ([2]; 62.5 g/ha): 5%
- Observed (percentage phytotoxicity) ([2]; 125 g/ha): 8%
- Observed (percentage phytotoxicity) ([2]; 250 g/ha): 20%
- Observed (percentage phytotoxicity) (Setaria viridis (SETVI); 31.25 g/ha): 5%
- Observed (percentage phytotoxicity) (Setaria viridis (SETVI); 125 g/ha): 8%
- Observed (percentage phytotoxicity) ([3]; 62.5 g/ha): 9%
- Observed (percentage phytotoxicity) ([3]; 125 g/ha): 15%
- Observed (percentage phytotoxicity) ([3]; 250 g/ha): 15%
- Observed (percentage phytotoxicity) ([4]; 62.5 g/ha): 13%
- Observed (percentage phytotoxicity) ([4]; 125 g/ha): 3%
- Observed (percentage phytotoxicity) (Lolium perenne (LOLPE); 62.5 g/ha): 10%
- Observed (percentage phytotoxicity) (Lolium perenne (LOLPE); 125 g/ha): 8%
- Observed (percentage phytotoxicity) (Lolium perenne (LOLPE); 250 g/ha): 10%
- Observed (percentage phytotoxicity) ([6]; 125 g/ha): 15%
- Observed (percentage phytotoxicity) ([6]; 250 g/ha): 10%
- Observed (percentage phytotoxicity) ([7]; 62.5 g/ha): 48%
- Observed (percentage phytotoxicity) ([7]; 250 g/ha): 45%

Structure (SMILES): Cn1nc(C(F)(F)F)c(CS(=O)(=O)C2=NOC(C)(C)C2)c1OC(F)F [Compound B-9]
- Observed (percentage phytotoxicity) ([1]; 3.91 g/ha): 40%
- Observed (percentage phytotoxicity) ([1]; 7.81 g/ha): 55%
- Observed (percentage phytotoxicity) ([2]; 7.81 g/ha): 53%
- Observed (percentage phytotoxicity) ([2]; 15.63 g/ha): 73%
- Observed (percentage phytotoxicity) ([4]; 1.95 g/ha): 13%
- Observed (percentage phytotoxicity) ([4]; 3.91 g/ha): 43%
- Observed (percentage phytotoxicity) ([4]; 7.81 g/ha): 65%
- Observed (percentage phytotoxicity) (Lolium perenne (LOLPE); 1.95 g/ha): 14%
- Observed (percentage phytotoxicity) (Lolium perenne (LOLPE); 3.91 g/ha): 40%
- Observed (percentage phytotoxicity) (Lolium perenne (LOLPE); 7.81 g/ha): 44%
- Observed (percentage phytotoxicity) (Lolium perenne (LOLPE); 15.63 g/ha): 48%
- Observed (percentage phytotoxicity) (Lolium perenne (LOLPE); 31.25 g/ha): 66%
- Observed (percentage phytotoxicity) ([7]; 1.95 g/ha): 40%

Structure (SMILES): CC(C)N(C(=O)COc1nnc(C(F)(F)F)s1)c1ccc(F)cc1 [Compound B-16]
- Observed (percentage phytotoxicity) ([1]; 15.63 g/ha): 23%
- Observed (percentage phytotoxicity) ([2]; 3.91 g/ha): 5%
- Observed (percentage phytotoxicity) ([2]; 7.81 g/ha): 8%
- Observed (percentage phytotoxicity) ([3]; 15.63 g/ha): 48%
- Observed (percentage phytotoxicity) (Lolium perenne (LOLPE); 3.91 g/ha): 45%
- Observed (percentage phytotoxicity) ([7]; 31.25 g/ha): 70%

Structure (SMILES): O=C(Nc1ccc(F)cc1F)c1cccnc1Oc1cccc(C(F)(F)F)c1 [Compound B-20]
- Observed (percentage phytotoxicity) ([1]; 3.91 g/ha): 8%
- Observed (percentage phytotoxicity) ([1]; 15.63 g/ha): 20%
- Observed (percentage phytotoxicity) ([1]; 31.25 g/ha): 18%
- Observed (percentage phytotoxicity) ([2]; 31.25 g/ha): 5%
- Observed (percentage phytotoxicity) ([3]; 15.63 g/ha): 8%
- Observed (percentage phytotoxicity) ([4]; 31.25 g/ha): 68%
- Observed (percentage phytotoxicity) ([5]; 15.63 g/ha): 10%
- Observed (percentage phytotoxicity) ([8]; 15.63 g/ha): 23%
- Observed (percentage phytotoxicity) ([8]; 31.25 g/ha): 23%
